Reference: ChEMBL document CHEMBL3046121, “Design and synthesis of new N-substituted amino methyl-[1,2,3] triazolyl moieties of fluoroquinolones as antibacterial agents” (2013)
Converted amounts (≈) assume the structure as drawn. Each block holds one compound with its values, some of them ahead of it.

Tests used:
Assay type in all cases: functional
Staphylococcus aureus [1] = test: Antibacterial activity against methicillin-sensitive Staphylococcus aureus ATCC 29213 assessed as growth inhibition after 24 hr by two-fold serial dilution method; conditions: ATCC 29213, 24 h
Staphylococcus aureus [2] = test: Antibacterial activity against Methicillin-resistant Staphylococcus aureus ATCC 33591 assessed as growth inhibition after 24 hr by two-fold serial dilution method; conditions: ATCC 33591, 24 h
Acinetobacter baumannii = test: Antibacterial activity against Acinetobacter baumannii BAA 747 assessed as growth inhibition after 24 hr by two-fold serial dilution method; conditions: BAA 747, 24 h
Moraxella catarrhalis = test: Antibacterial activity against Moraxella catarrhalis ATCC 25238 assessed as growth inhibition after 24 hr by two-fold serial dilution method; conditions: ATCC 25238, 24 h
Enterococcus faecalis = test: Antibacterial activity against Vancomycin-resistant Enterococcus faecalis ATCC 700802 assessed as growth inhibition after 24 hr by two-fold serial dilution method; conditions: ATCC 700802, 24 h
Klebsiella pneumoniae = test: Antibacterial activity against clinical Klebsiella pneumoniae AB 356 assessed as growth inhibition after 24 hr by two-fold serial dilution method; conditions: AB 356, 24 h

Structure (SMILES): O=C(O)c1cn(C2CC2)c2cc(-n3cc(CNC4CCCCCC4)nn3)c(F)cc2c1=O
MIC (Staphylococcus aureus [1]): 32 µg/mL (≈ 72.8 µM) | MIC (Staphylococcus aureus [2]): 32 µg/mL (≈ 72.8 µM) | MIC (Acinetobacter baumannii): 16 µg/mL (≈ 36.4 µM) | MIC (Moraxella catarrhalis): 8 µg/mL (≈ 18.2 µM) | MIC (Enterococcus faecalis): 32 µg/mL (≈ 72.8 µM) | MIC (Klebsiella pneumoniae): 16 µg/mL (≈ 36.4 µM)

Structure (SMILES): O=C(O)c1cn(C2CC2)c2cc(-n3cc(CNc4ccccc4)nn3)c(F)cc2c1=O
MIC (Staphylococcus aureus [1]): 0.25 µg/mL (≈ 0.596 µM) | MIC (Staphylococcus aureus [2]): 0.5 µg/mL (≈ 1.19 µM) | MIC (Acinetobacter baumannii): 1 µg/mL (≈ 2.38 µM) | MIC (Moraxella catarrhalis): 0.125 µg/mL (≈ 0.298 µM) | MIC (Enterococcus faecalis): 2 µg/mL (≈ 4.77 µM) | MIC (Klebsiella pneumoniae): 1 µg/mL (≈ 2.38 µM)

Structure (SMILES): O=C(O)c1cn(C2CC2)c2cc(-n3cc(CNc4ccc(F)cc4)nn3)c(F)cc2c1=O
MIC (Staphylococcus aureus [1]): 0.25 µg/mL (≈ 0.572 µM) | MIC (Staphylococcus aureus [2]): 1 µg/mL (≈ 2.29 µM) | MIC (Acinetobacter baumannii): 2 µg/mL (≈ 4.57 µM) | MIC (Moraxella catarrhalis): 0.25 µg/mL (≈ 0.572 µM) | MIC (Enterococcus faecalis): 4 µg/mL (≈ 9.14 µM) | MIC (Klebsiella pneumoniae): 2 µg/mL (≈ 4.57 µM)

Structure (SMILES): O=C(O)c1cn(C2CC2)c2cc(-n3cc(CNc4ccc(Cl)cc4)nn3)c(F)cc2c1=O
MIC (Staphylococcus aureus [1]): 0.25 µg/mL (≈ 0.551 µM) | MIC (Staphylococcus aureus [2]): 0.25 µg/mL (≈ 0.551 µM) | MIC (Acinetobacter baumannii): 0.5 µg/mL (≈ 1.1 µM) | MIC (Moraxella catarrhalis): 0.125 µg/mL (≈ 0.275 µM) | MIC (Enterococcus faecalis): 1 µg/mL (≈ 2.2 µM) | MIC (Klebsiella pneumoniae): 1 µg/mL (≈ 2.2 µM)

Structure (SMILES): COc1ccc(NCc2cn(-c3cc4c(cc3F)c(=O)c(C(=O)O)cn4C3CC3)nn2)cc1
MIC (Staphylococcus aureus [1]): 0.5 µg/mL (≈ 1.11 µM) | MIC (Staphylococcus aureus [2]): 0.5 µg/mL (≈ 1.11 µM) | MIC (Acinetobacter baumannii): 8 µg/mL (≈ 17.8 µM) | MIC (Moraxella catarrhalis): 0.5 µg/mL (≈ 1.11 µM) | MIC (Enterococcus faecalis): 2 µg/mL (≈ 4.45 µM) | MIC (Klebsiella pneumoniae): 4 µg/mL (≈ 8.9 µM)

Structure (SMILES): Cc1ccc(NCc2cn(-c3cc4c(cc3F)c(=O)c(C(=O)O)cn4C3CC3)nn2)cc1
MIC (Staphylococcus aureus [1]): 0.5 µg/mL (≈ 1.15 µM) | MIC (Staphylococcus aureus [2]): 0.5 µg/mL (≈ 1.15 µM) | MIC (Acinetobacter baumannii): 8 µg/mL (≈ 18.5 µM) | MIC (Moraxella catarrhalis): 0.125 µg/mL (≈ 0.288 µM) | MIC (Enterococcus faecalis): 2 µg/mL (≈ 4.61 µM) | MIC (Klebsiella pneumoniae): 4 µg/mL (≈ 9.23 µM)

Structure (SMILES): O=C(O)c1cn(C2CC2)c2cc(-n3cc(CNCc4ccccc4)nn3)c(F)cc2c1=O
MIC (Staphylococcus aureus [1]): 2 µg/mL (≈ 4.61 µM) | MIC (Staphylococcus aureus [2]): 2 µg/mL (≈ 4.61 µM) | MIC (Acinetobacter baumannii): 8 µg/mL (≈ 18.5 µM) | MIC (Moraxella catarrhalis): 1 µg/mL (≈ 2.31 µM) | MIC (Enterococcus faecalis): 4 µg/mL (≈ 9.23 µM) | MIC (Klebsiella pneumoniae): 1 µg/mL (≈ 2.31 µM)

Structure (SMILES): O=C(O)c1cn(C2CC2)c2cc(-n3cc(CNCc4ccc(F)cc4)nn3)c(F)cc2c1=O
MIC (Staphylococcus aureus [1]): 2 µg/mL (≈ 4.43 µM) | MIC (Staphylococcus aureus [2]): 2 µg/mL (≈ 4.43 µM) | MIC (Acinetobacter baumannii): 8 µg/mL (≈ 17.7 µM) | MIC (Moraxella catarrhalis): 1 µg/mL (≈ 2.22 µM) | MIC (Enterococcus faecalis): 4 µg/mL (≈ 8.86 µM) | MIC (Klebsiella pneumoniae): 2 µg/mL (≈ 4.43 µM)

Structure (SMILES): O=C(O)c1cn(C2CC2)c2cc(-n3cc(Cn4ccnc4)nn3)c(F)cc2c1=O
MIC (Staphylococcus aureus [1]): 32 µg/mL (≈ 81.1 µM) | MIC (Staphylococcus aureus [2]): 32 µg/mL (≈ 81.1 µM) | MIC (Acinetobacter baumannii): 32 µg/mL (≈ 81.1 µM) | MIC (Moraxella catarrhalis): 8 µg/mL (≈ 20.3 µM) | MIC (Enterococcus faecalis): 32 µg/mL (≈ 81.1 µM) | MIC (Klebsiella pneumoniae): 32 µg/mL (≈ 81.1 µM)

Structure (SMILES): CN(C)Cc1cn(-c2cc3c(cc2F)c(=O)c(C(=O)O)cn3C2CC2)nn1
MIC (Staphylococcus aureus [1]): 4 µg/mL (≈ 10.8 µM) | MIC (Staphylococcus aureus [2]): 8 µg/mL (≈ 21.5 µM) | MIC (Acinetobacter baumannii): 8 µg/mL (≈ 21.5 µM) | MIC (Moraxella catarrhalis): 1 µg/mL (≈ 2.69 µM) | MIC (Enterococcus faecalis): 16 µg/mL (≈ 43.1 µM) | MIC (Klebsiella pneumoniae): 2 µg/mL (≈ 5.39 µM)

Structure (SMILES): CCN(CC)Cc1cn(-c2cc3c(cc2F)c(=O)c(C(=O)O)cn3C2CC2)nn1
MIC (Staphylococcus aureus [1]): 8 µg/mL (≈ 20 µM) | MIC (Staphylococcus aureus [2]): 32 µg/mL (≈ 80.1 µM) | MIC (Acinetobacter baumannii): 16 µg/mL (≈ 40.1 µM) | MIC (Moraxella catarrhalis): 16 µg/mL (≈ 40.1 µM) | MIC (Enterococcus faecalis): 32 µg/mL (≈ 80.1 µM) | MIC (Klebsiella pneumoniae): 16 µg/mL (≈ 40.1 µM)

Structure (SMILES): CCCN(CCC)Cc1cn(-c2cc3c(cc2F)c(=O)c(C(=O)O)cn3C2CC2)nn1
MIC (Staphylococcus aureus [1]): 8 µg/mL (≈ 18.7 µM) | MIC (Staphylococcus aureus [2]): 32 µg/mL (≈ 74.9 µM) | MIC (Acinetobacter baumannii): 16 µg/mL (≈ 37.4 µM) | MIC (Moraxella catarrhalis): 2 µg/mL (≈ 4.68 µM) | MIC (Enterococcus faecalis): 32 µg/mL (≈ 74.9 µM) | MIC (Klebsiella pneumoniae): 8 µg/mL (≈ 18.7 µM)

Structure (SMILES): O=C(O)c1cn(C2CC2)c2cc(-n3cc(CN4CCCC4)nn3)c(F)cc2c1=O
MIC (Staphylococcus aureus [1]): 2 µg/mL (≈ 5.03 µM) | MIC (Staphylococcus aureus [2]): 8 µg/mL (≈ 20.1 µM) | MIC (Acinetobacter baumannii): 8 µg/mL (≈ 20.1 µM) | MIC (Moraxella catarrhalis): 1 µg/mL (≈ 2.52 µM) | MIC (Enterococcus faecalis): 16 µg/mL (≈ 40.3 µM) | MIC (Klebsiella pneumoniae): 2 µg/mL (≈ 5.03 µM)

Structure (SMILES): O=C(O)c1cn(C2CC2)c2cc(-n3cc(CN4CCCCC4)nn3)c(F)cc2c1=O
MIC (Staphylococcus aureus [1]): 4 µg/mL (≈ 9.72 µM) | MIC (Staphylococcus aureus [2]): 16 µg/mL (≈ 38.9 µM) | MIC (Acinetobacter baumannii): 8 µg/mL (≈ 19.4 µM) | MIC (Moraxella catarrhalis): 1 µg/mL (≈ 2.43 µM) | MIC (Enterococcus faecalis): 16 µg/mL (≈ 38.9 µM) | MIC (Klebsiella pneumoniae): 2 µg/mL (≈ 4.86 µM)

Structure (SMILES): O=C(O)c1cn(C2CC2)c2cc(-n3cc(CN4CCOCC4)nn3)c(F)cc2c1=O
MIC (Staphylococcus aureus [1]): 8 µg/mL (≈ 19.4 µM) | MIC (Staphylococcus aureus [2]): 16 µg/mL (≈ 38.7 µM) | MIC (Acinetobacter baumannii): 16 µg/mL (≈ 38.7 µM) | MIC (Moraxella catarrhalis): 4 µg/mL (≈ 9.68 µM) | MIC (Enterococcus faecalis): 16 µg/mL (≈ 38.7 µM) | MIC (Klebsiella pneumoniae): 16 µg/mL (≈ 38.7 µM)

Structure (SMILES): O=C(O)c1cn(C2CC2)c2cc(-n3cc(CN4CCNCC4)nn3)c(F)cc2c1=O
MIC (Staphylococcus aureus [1]): 16 µg/mL (≈ 38.8 µM) | MIC (Staphylococcus aureus [2]): 16 µg/mL (≈ 38.8 µM) | MIC (Acinetobacter baumannii): 32 µg/mL (≈ 77.6 µM) | MIC (Moraxella catarrhalis): 8 µg/mL (≈ 19.4 µM) | MIC (Enterococcus faecalis): 32 µg/mL (≈ 77.6 µM) | MIC (Klebsiella pneumoniae): 8 µg/mL (≈ 19.4 µM)

Structure (SMILES): CC(C)NCc1cn(-c2cc3c(cc2F)c(=O)c(C(=O)O)cn3C2CC2)nn1
MIC (Staphylococcus aureus [1]): 16 µg/mL (≈ 41.5 µM) | MIC (Staphylococcus aureus [2]): 16 µg/mL (≈ 41.5 µM) | MIC (Acinetobacter baumannii): 16 µg/mL (≈ 41.5 µM) | MIC (Moraxella catarrhalis): 1 µg/mL (≈ 2.59 µM) | MIC (Enterococcus faecalis): 16 µg/mL (≈ 41.5 µM) | MIC (Klebsiella pneumoniae): 4 µg/mL (≈ 10.4 µM)

Structure (SMILES): O=C(O)c1cn(C2CC2)c2cc(-n3cc(CNC4CC4)nn3)c(F)cc2c1=O
MIC (Staphylococcus aureus [1]): 16 µg/mL (≈ 41.7 µM) | MIC (Staphylococcus aureus [2]): 16 µg/mL (≈ 41.7 µM) | MIC (Acinetobacter baumannii): 32 µg/mL (≈ 83.5 µM) | MIC (Moraxella catarrhalis): 32 µg/mL (≈ 83.5 µM) | MIC (Enterococcus faecalis): 16 µg/mL (≈ 41.7 µM) | MIC (Klebsiella pneumoniae): 32 µg/mL (≈ 83.5 µM)

Structure (SMILES): O=C(O)c1cn(C2CC2)c2cc(-n3cc(CNC4CCCC4)nn3)c(F)cc2c1=O
MIC (Staphylococcus aureus [1]): 16 µg/mL (≈ 38.9 µM) | MIC (Staphylococcus aureus [2]): 16 µg/mL (≈ 38.9 µM) | MIC (Acinetobacter baumannii): 16 µg/mL (≈ 38.9 µM) | MIC (Moraxella catarrhalis): 1 µg/mL (≈ 2.43 µM) | MIC (Enterococcus faecalis): 16 µg/mL (≈ 38.9 µM) | MIC (Klebsiella pneumoniae): 4 µg/mL (≈ 9.72 µM)

Structure (SMILES): O=C(O)c1cn(C2CC2)c2cc(-n3cc(CNC4CCCCC4)nn3)c(F)cc2c1=O
MIC (Staphylococcus aureus [1]): 16 µg/mL (≈ 37.6 µM) | MIC (Staphylococcus aureus [2]): 32 µg/mL (≈ 75.2 µM) | MIC (Acinetobacter baumannii): 8 µg/mL (≈ 18.8 µM) | MIC (Moraxella catarrhalis): 1 µg/mL (≈ 2.35 µM) | MIC (Enterococcus faecalis): 32 µg/mL (≈ 75.2 µM) | MIC (Klebsiella pneumoniae): 2 µg/mL (≈ 4.7 µM)

Structure (SMILES): O=C(O)c1cn(C2CC2)c2cc(N3CCNCC3)c(F)cc2c1=O [CIPROFLOXACIN]
MIC (Staphylococcus aureus [1]): 0.5 µg/mL (≈ 1.51 µM) | MIC (Staphylococcus aureus [2]): 0.5 µg/mL (≈ 1.51 µM) | MIC (Acinetobacter baumannii): 0.5 µg/mL (≈ 1.51 µM) | MIC (Moraxella catarrhalis): 0.25 µg/mL (≈ 0.754 µM) | MIC (Enterococcus faecalis): 0.5 µg/mL (≈ 1.51 µM)

MIC (Acinetobacter baumannii): > 32 µg/mL | MIC (Moraxella catarrhalis): 4 µg/mL (≈ 11.9 µM) | MIC (Klebsiella pneumoniae): > 32 µg/mL
Structure (SMILES): CC(=O)NC[C@H]1CN(c2ccc(N3CCOCC3)c(F)c2)C(=O)O1 [LINEZOLID]
